Measured values published in patent publication US20230330243A1, “COMBINATION OF ANTIBODY-DRUG CONJUGATE AND ATR INHIBITOR” (Daiichi Sankyo Company, Limited, priority 2020, published 2023).
Structures can show the parent of a compound that is named as a salt.

Assays:
[1] = system: KPL4; experiment: Nuclear cell count growth inhibition / synergy and IF biomarkers, 4 to 8 days (Example 4); type: cell-based
Description: (§1) Cells grown in their respective conditions were plated in 96-well plates at optimal density to allow linear proliferation for the duration of the assay (4 to 8 days; duration of treatment is dependent on the growth rate of each cell line). Immediately after plating, the cells were dosed with the indicated compounds for a total volume of 200 µL/well and placed in the incubator. Combinations were conducted as a 6 × 8 concentration response matrix for each combination. At the endpoint, the cells were fixed in 2% PFA for 20 minutes at room temperature. In order to obtain the number of cells at the start of treatment, one additional plate was used for each experiment and fixed after cells attached. The cells were then permeabilised in 0.5% Triton-X100 in PBS for 10 minutes. After a PBS wash, the cells were blocked in 5% FBS in PBS 1h at RT and incubated with primary antibodies in 5% FBS + 0.05% triton overnight at 4° C. After 3 washes in PBS cells were incubated with secondary antibodies in 5% FBS + 0.05% triton with Hoechst33258 for 1h at room temperature. After 3 washes in PBS, the cells were scanned with a Cellinsight instrument with a 10× objective and 9 fields/well. Images were analysed using Columbus for cell count based on nuclear Hoechst staining and nuclear intensity of other biomarkers investigated. The total cell count/well was used to calculate the relative growth in each well compared to solvent control. […] The mean/well of the sum of the nuclear intensity of the IF biomarkers was also expressed relative to solvent control.

[2] = system: MDA-MB-468; experiment: as above; type: cell-based
Description: as §1

[3] = system: DU145-SLFN11 KO (CRISPR-Cas9 gene knockout of SLFN11); experiment: Nuclear cell count growth inhibition, 4 to 8 days (Example 4); type: cell-based; settings: Prostate, HER2 Low, monotherapy
Description: (§2) Cells grown in their respective conditions were plated in 96-well plates at optimal density to allow linear proliferation for the duration of the assay (4 to 8 days; duration of treatment is dependent on the growth rate of each cell line). Immediately after plating, the cells were dosed with the indicated compounds for a total volume of 200 µL/well and placed in the incubator. Combinations were conducted as a 6 × 8 concentration response matrix for each combination. At the endpoint, the cells were fixed in 2% PFA for 20 minutes at room temperature. In order to obtain the number of cells at the start of treatment, one additional plate was used for each experiment and fixed after cells attached. The cells were then permeabilised in 0.5% Triton-X100 in PBS for 10 minutes. After a PBS wash, the cells were blocked in 5% FBS in PBS 1h at RT and incubated with primary antibodies in 5% FBS + 0.05% triton overnight at 4° C. After 3 washes in PBS cells were incubated with secondary antibodies in 5% FBS + 0.05% triton with Hoechst33258 for 1h at room temperature. After 3 washes in PBS, the cells were scanned with a Cellinsight instrument with a 10× objective and 9 fields/well. Images were analysed using Columbus for cell count based on nuclear Hoechst staining and nuclear intensity of other biomarkers investigated. […]

[4] = system: ATR pathway in NCI-N87 (gastric cancer) cells; experiment: Antibody blots of ATR signaling (Example 6); type: cell-based
Description: (§3) Gastric cancer NCI-N87 and breast carcinoma KPL4 cell lines were cultured in RPMI 1640 supplemented with 10 % FCS in a humidified incubator at 37° C. with 5% CO2. Cells were plated in 6-well plates at optimal density to allow linear proliferation for the duration of the assay. […] 7 h, 24 h or 48 h after dosing, whole-cell extracts were obtained by lysis in 50 mM Tris-HC1 pH 7.5, 2% SDS containing protease and phosphatase inhibitors. Lysates were boiled for 5 minutes at 95° C. Protein concentration was measured using a Nanodrop at […] and 50 µg of lysate were loaded in 4-12% Bis Tris gels. Proteins were transferred using iblot2. Primary antibodies (see Table 7) were incubated overnight at 4° C. in 3% milk TBS-tween 0.05% and HRP-conjugated secondary antibodies for 1h at room temperature. Blots were imaged using a G-box.

[5] = system: ATR pathway in KPL4 (breast carcinoma) cells; experiment: Antibody blots of ATR signaling (Example 6); type: cell-based
Description: as §3

[6] = system: NCI-N87; experiment: Nuclear cell count growth inhibition, 4 to 8 days (Example 4); type: cell-based; settings: Homo sapiens; NCI-N87, Gastric, HER2 High; monotherapy
Description: as §2

[7] = system: JIMT-1; experiment: Nuclear cell count growth inhibition / synergy, 4 to 8 days (Example 4); type: cell-based; settings: Homo sapiens; JIMT-1, Breast, HER2 Expressed; monotherapy
Description: as §2

[8] = system: SK-OV-3; experiment: as above; type: cell-based; settings: Homo sapiens; SK-OV-3, Ovarian, HER2 Moderate; monotherapy
Description: as §2

[9] = system: NCI-N87 tumors implanted subcutaneously; experiment: NCI-N87 xenograft tumor growth inhibition (Example 5); type: in vivo, Female Nude mice; settings: AZD6738 25 mg/kg PO BID (14 d-on/14-d off); day 40 post treatment
[10] = DS-8201 at 30 µg/mL or exatecan mesylate alone, 7 h, 24 h or 48 h
[11] = AZD6738 at 1 µM in combination with DS-8201 or exatecan mesylate

Row | Structure (SMILES) | Biomarkers of ATM (KAP1 pSer824) activation and DNA strand breaks (γH2AX) ([1]; KPL4, single agent) | Combination activity with AZD6738 (in words) ([1]; high-HER2 KPL4, in combination with AZD6738, clinically relevant concentrations) | Combination activity with AZD6738 (in words) ([2]; HER2-negative MDA-MB-468, in combination with AZD6738) | GI50 [3] | ATR pathway (pATR-T1989, pChk1-S345) and cell cycle arrest (pCdc2-Y15) [4, 10] | ATR pathway (pATR-T1989, pChk1-S345) and cell cycle arrest (pCdc2-Y15) [5, 10] | GI50 ([1]; KPL4, Breast, HER2 High, monotherapy) | GI50 ([2]; Homo sapiens, MDA-MB-468, Breast, HER2 Low, monotherapy) | GI50 [6] | Activation of pATR and pChk1 and cell cycle arrest induced by DS-8201 or exatecan mesylate ([4]; AZD6738 at 1 µM in combination) | Cell death (cCasp3) [4, 11] | DNA damage (pKap1, gH2AX) [4, 11] | Activation of pATR and pChk1 and cell cycle arrest induced by DS-8201 or exatecan mesylate ([5]; AZD6738 at 1 µM in combination) | Cell death (cCasp3) [5, 11] | DNA damage (pKap1, gH2AX) [5, 11] | GI50 [7] | GI50 [8] | Best response %TGI/regression (maximum TGI) [9]
1 | CC[C@@]1(O)C(=O)OCc2c1cc1n(c2=O)Cc2c-1nc1cc(F)c(C)c3c1c2[C@@H](N)CC3 [Exatecan mesylate, (1S,9S)-1-amino-9-ethyl-5-fluoro-1,2,3,9,12,15-hexahydro-9-hydroxy-4-methyl-10H,13H-benzo[de]pyrano[3′,4′:6,7]indolizino[1,2-b]quinolin-10,13-dione, reference compound] | induced in a concentration dependent manner | synergistic activity and cell death | still showed combination activity | 0.45 nM | induced activation of the ATR pathway | induced activation of the ATR pathway | – | – | – | – | – | – | – | – | – | – | – | –
2 | C[C@@H]1COCCN1c1cc(C2([S@](C)(=N)=O)CC2)nc(-c2ccnc3[nH]ccc23)n1 [AZD6738, 4-{4-[(3R)-3-methylmorpholin-4-yl]-6-[1-((R)-S-methylsulfonimidoyl)cyclopropyl]pyrimidin-2-yl}-1H-pyrrolo[2,3-b]pyridine] | – | – | – | – | – | – | > 3000 nM | 2070 nM | 436 nM | inhibited the activation of pATR and pChk1 and cell cycle arrest | increased cell death | exacerbating the DNA damage | inhibited the activation of pATR and pChk1 and cell cycle arrest | increased cell death | exacerbating the DNA damage | 788 nM | 1010 nM | 62%
